US20230097883A1, “ERGOTHIONEINE PET COMPOUNDS AND METHODS OF USE THEREOF” (VANDERBILT UNIVERSITY, priority 2021, published 2023)

How the values were obtained:
[1] = Ferrous ion chelating (FIC) assay; type: biochemical; settings: increasing ERGO concentrations
Text: We also assessed ERGO's transition metal scavenging using cupric ion chelating (CIC) and ferrous ion chelating (FIC) assays. In these experiments, pyrocatechol violet or ferrozine forms a complex with free Cu(II) or Fe(II), respectively, resulting in a chromophore with a strong absorbance signal. The pyrocatechol violet-COI) complex has an absorbance lambda max (λmax) at 630 nm, and ferrozine-Fe(II) has a λmax at 562 nm. In the presence of ERGO, fewer free metals are available to form these complexes, resulting in less absorbance.
The iron chelating activity of ERGO was determined using a FIC assay, which was obtained from Zen-Bio Inc. (Durham, N.C.). The assay was done on a 96-well plate with triplicated samples, standards, background, and max absorbance wells. All of the assay absorbance values were subtracted from the average background absorbance, comprising of water and assay buffer (1:1). Maximal absorbance was measured by averaging the absorbance values of 3 wells containing only FeSO4 and assay buffer. […] The assaying plate was incubated at room temperature for 10 minutes then the plate was read at 562 nm using a Biotek Synergy 4 plate reader. Absorbances were averaged, and the background absorbance was subtracted from the sample and maximum averages (Abstest and Absmax). […]

[2] = system: Abeta; test: [11C]PIB PET imaging of Abeta levels after ERGO treatment; type: in vivo, mouse
Description: To address our primary question whether longitudinal consumption of ERGO as a potent antioxidant benefit the brain, three cohorts of animals (n=12 non-treated WT control, n=12 non-treated 5XFAD, and n=18 ERGO-treated 5XFAD) were used (FIG. 3.2A). Starting at the age of 8 weeks, the animals were treated with high doses of ERGO solution (25-50 mg/Kg) formulated in double distilled (dd) water via oral gavage three times a week over the course of eight weeks. To reduce bias in the behavioral experiments with regard to the potential stress during gavage treatment, non-treated animals underwent the identical gavage process with the vehicle, water, only. The efficacy of the therapy was evaluated by behavioral testing, followed by three different non-invasive PET imaging sessions to assess biomarkers related to AD pathology. […]
Non-invasive, in vivo, and robust assessment of Abeta levels in the brains of treated and non-treated 5XFAD mice were performed using the [^11C]PIB PET probe, the chemical structure of which has been described elsewhere. […] We co-registered the PET/CT image to an MRI template for quantitative PET analysis of regional uptake in the brain. […]

[3] = system: Abeta; test: Abeta immunohistochemistry (6E10 antibody) of brain sections after ERGO treatment; type: in vivo, mouse; settings: ERGO-treated versus non-treated 5XFAD mice, approx. 4 months of age
Description: To confirm the in vivo observations, animals were perfused, and the brain sections were stained with anti-Abeta antibody, 6E10. […] In particular, we observed a clear difference in the hippocampus, pyramidal cortex and thalamus of non-treated compared to ERGO-treated 5XFAD mice (FIG. 3L, 3.30, 3.3R).
Quantitative analysis of the PET imaging and IHC data was performed using imageJ software. The data was imported to GraphPad Prism version 9 for Mac (GraphPad Software, San Diego, Calif., USA) for statistical analysis. Differences between groups were tested using unpaired t-test.

Compound: C[N+](C)(C)[C@@H](Cc1c[nH]c(=S)[nH]1)C(=O)[O-] [ERGO, L-ergothioneine]
- absorbance signal of ferrozine-Fe(II) complex [1]: decreased as the concentrations of ERGO increased in a dose-dependent fashion
- [11C]PIB PET signal in brain ([2]; ERGO-treated 5XFAD, 4-month-old, n=7, ~15 MBq [11C]PIB): very weak, and resembled the background signal found in WT mice
- [11C]PIB % ID/g higher in non-treated 5XFAD compared to treated counterparts, every brain subregion ([2]; non-treated n=5 versus ERGO-treated n=7 5XFAD mice): 30-50%
- decrease in Abeta level (pixel counts), hippocampus [3]: 4 fold
- decrease in Abeta level (pixel counts), pyramidal cortex [3]: 5 fold
- decrease in Abeta level (pixel counts), thalamus [3]: 2 fold
